Experiment: Particle size by laser diffraction using photo correlation spectroscopy (Nicomp C370)
Assay type: physicochemical
Details: ganaxolone particles in spray-dried mixture with lactose (Example I)
Method: For purposes of the present invention, particle size in the mixtures is determined by a laser diffraction technique using photo correlation spectroscopy (Nicomp C370). The results are reported in terms of volume-weighted mean diameter. Volume-weighted mean diameter is defined as follows: (Σnd^4)/(Σnd^3) where n=the number of particles in a size interval characterized by a diameter “d”. Remington's Pharmaceutical Sciences, 18th edition, Mack Publishing Company, Easton, Pa. (1990).
Approximately 100 g of ganaxolone was dissolved in 5 kg of ethanol with slight warming to 30° C. The solution was sprayed into 1 kg of spray-dried lactose NF (Fast Flo #316) in a Vector FL-M-1 fluid bed system equipped with a 6″ Wurster column. The spray rate was 34–41 mL/min using one gun. The static inlet pressure was 2.5–8 bar (250–800 kPa) affording an air flow of 25–45 cfm. The inlet temperature was 85–90° C. and the product temperature was 27–48° C. The resulting ganaxolone powder mixture was free-flowing and contained 63 mg ganaxolone per g of powder. The ganaxolone particle size in the mixture was determined by a laser diffraction technique using photo correlation spectroscopy (Nicomp C370).

Compound: CC(=O)[C@H]1CC[C@H]2[C@@H]3CC[C@H]4C[C@](C)(O)CC[C@]4(C)[C@H]3CC[C@]12C [ganaxolone, 3α-hydroxy-3β-methyl-5α-pregnan-20-one]
- volume-weighted mean diameter: 660 nm
